We go through two compounds from patent publication US12403132B2, “Methods of treating bone marrow failure syndromes and compositions for use in the same” (The Board of Trustees of the Leland Stanford Junior …, priority 2020, dated 2025).

The test system of one assay is CD235+ erythroblasts. Description: CD235+ erythroblast differentiation of CD34+ HSPCs from DBA patient bone marrow. The format is cell-based, human. Particulars: DBA patient samples, 5 μM SD208. Here is the method:
FIG. 8. NLK inhibition increases expansion of erythroid progenitors from human and murine models of DBA. Human cord blood CD34+ progenitors were transduced with lentivirus co-expressing GFP with shRNA against luciferase (shLuc), RPS19 (shRPS19) or RPL11 (shRPL11). After 36 hours cells GFP+ cells were differentiated in erythroid media in the presence or absence of 5 μM SD208 for 15 days. Cells were counted and assessed for cell surface expression of CD235. (a) The percentage of CD235+ cells was multiplied by the cell count and values were compared as a percentage of untreated controls. (b) Normalizing values relative to untreated RPS19-insufficiency progenitors facilitates direct comparison of erythropoiesis between untreated and SD208-treated cultures. (c) Approximately 3000 cells were removed from differentiating treatments at day 6 and NLK activity was assessed. […] Values were expressed as a percentage relative to untreated controls (e) and directly comparing the effect of SD208 on erythropoiesis in ribosomal-insufficiency by expressing values relative to untreated ribosome-insufficient cultures (f). […] After counting the total cell population, the ratio of CD235+ erythroblasts was determined by flow cytometry and number of CD235+ erythroblasts calculated. This was expressed as a percentage of the average number of erythroid cells present in untreated healthy controls. […]

The next assay deals with human NLK 3′UTR. Description: Luciferase fused to human NLK 3′UTR in K562 cells. The format is cell-based. Here is the method: FIG. 12. NLK 3′UTR facilitates metformin-mediated NLK suppression. (Panel A) K562 cells stabling expressing luciferase alone (top portion), luciferase expressed behind a minimal promoter and the NLK proximal promoter (2nd portion), luciferase immediately upstream of the human NLK 3′UTR (3rd portion) or luciferase with the SATB1 3′UTR (bottom portion) were grown in the presence of 0, 0.5, 5.0 or 50.0 mM of metformin for 72 hrs. Cell were pelleted and either processed for luciferase assay (left portion) or western blot analysis of endogenous NLK (upper right portion) or GAPDH (lower right portion). (Panel B) Luciferase immediately upstream of the human (upper), murine (middle) and zebrafish (lower) NLK 3′UTR were transiently transfected into human K562 (left) and cultured with indicated concentrations of metformin for 72 hrs. Lysates were assessed for luciferase activity and endogenous NLK and GAPDH protein expression by Western blotting. […] Statistics: two-tailed Student's t test, significant *P<0.05
FIG. 14. Metformin-mediated upregulation of miR-26a in human progenitors suppresses NLK expression. (Panel A) Human CD34+ (upper) and murine Lin-Kit+ (lower) progenitors were differentiated for 8 days in the presence or absence of metformin and the levels of indicated miRNAs were assessed by qRT-PCR. […] After lysis, luciferase activity was determined and endogenous NLK and GAPDH protein expression was analyzed by Western blot. […]
The NLK minimal promoter (1019 5′ nucleotides) and or NLK 3′UTR (1885 3′ nucleotides) were cloned upstream, or downstream respectively, of firefly luciferase and transfected into K562 cells. Transfection efficiency was normalized by RFP expression and firefly luciferase activity determined by Luciferase Assay Reagent II (LAR II) from Dual-Luciferase® Reporter (DLR™) Assay System (Promega). Luminescence was assessed using a Synergy™ H1 hybrid multi-mode microplate reader (BioTek®). […]

Take `Fc1ccc(Cl)cc1-c1nc(Nc2ccncc2)c2nccnc2n1` [SD208]: the “mean increase in erythroid expansion” value in the assay on CD235+ erythroblasts came out at 2.11 fold.
For the compound `CN(C)C(=N)N=C(N)N` [metformin], in the assay on human NLK 3′UTR (K562, miRNA mimetics or metformin, 72 hrs), the “reduction of luciferase activity (wild-type human NLK 3′UTR)” value is given as 72.5%. For the same compound, in the assay on human NLK 3′UTR (stable K562, 50 mM metformin, 72 hrs), the “decrease of luciferase (NLK 3′UTR fusion)” value turned out to be 67.5%. The “decrease of luciferase activity, human 3′UTR” value with human NLK 3′UTR (transient transfection in K562, metformin 72 hrs) worked out at 65.4%.
